Test results taken from article PMC6328429, “Synthesis of a benzoxazinthione derivative of tanaproget and pharmacological evaluation for PET imaging of PR expression” (EJNMMI Radiopharmacy and Chemistry, 2019).

Columns and labels:
[1] = In vitro non-radioactive metabolite analysis and clearance in MLM; format: in vitro ADME, mouse
Protocol: (§1) Microsomal incubations were performed using a Hamilton Microlab Star liquid handling workstation (Hamilton Robotics, Bonaduz, Switzerland). Test compound 2 (final concentration 1 or 10 μM, 1% DMSO) was pre-incubated at 37 °C for 10 min in MLM or HLM (final concentration 1 mg/ml prepared in 10 mM PBS). Reactions were initiated by the addition of NADPH (final concentration 1 mM). Aliquots were removed from each incubation and quenched in 3 volumes of ice-cold MeOH containing internal standard olomoucine (500 nM in MeOH) at − 1, 0, 5, 15, 30 and 60 min. Incubations were conducted in singlicate. […] Terminated incubations were centrifuged at 3700 rpm at 4 °C for 30 min and supernatant taken for analysis. Microsomal incubations were analysed by liquid chromatography-tandem mass spectrometry (LC-MS/MS). This consisted of a Dionex Ultimate 3000 UHPLC system coupled to a ThermoScientific Q Exactive Plus orbitrap mass spectrometer (Thermo Fisher Scientific Inc., Waltham, USA). Chromatographic separation was achieved using an Acquity UPLC HSS T3 column (1.8 μm, 100 × 2.1 mm) (Waters, Elstree, UK) at 50 °C and a binary mobile phase gradient at a flow rate of 0.4 ml/min. Initial LC conditions comprised 10% formic acid (0.1%) in water (A), 90% methanol (B). This was ramped to […] at 12 min. Sample analysis was by positive ion electrospray ionization. The capillary voltage was 3.5 kV. Full MS/dd-MS^2 (full MS scan followed by data dependent MS/MS) and Full MS/AIF (full MS scan followed by all ion fragmentation) workflows were used in combination. Full MS was performed at a resolution of 70,000, AGC target 1 e^6; dd-MS2 at a resolution of 17,5000, AGC target 1 e^5. LC-MS response (peak area of the analyte/peak area of internal standard) was fitted to a nonlinear single exponential model using software GraphPad Prism software (v6.07, GraphPad Software, Inc., La Jolla, USA). Elimination rate constant (k) was determined and intrinsic clearance, CLint, was calculated as CLint = (V.k)/mg protein where V is the incubation volume (μl) and mg protein is the mg microsomal protein in the incubation. Identification of metabolites in microsomal incubations and elucidation of their structures was undertaken with Compound Discoverer software (v2.0.0.303, Thermo Fisher Scientific Inc., Waltham, USA).

[2] = In vitro non-radioactive metabolite analysis and clearance in HLM; format: in vitro ADME, human
Protocol: as §1

microsomal CLint ([1]; mouse, mouse liver microsomes, MLM 1 mg/ml, NADPH 1 mM, 37 °C): 1270 µL/min/mg
Clearance, fold slower in HLM than in MLM ([2]; HLM versus MLM): ca. 22 fold
microsomal CLint ([2]; human, human liver microsomes, HLM 1 mg/ml, NADPH 1 mM, 37 °C): 56 µL/min/mg
SMILES: CC1(C)OC(=S)Nc2ccc(-c3cccnc3F)cc21 [Compound 2, 6-(2-fluoropyridin-3-yl)-4,4-dimethyl-1H-benzo[d][1,3]oxazine-2(4H)-thione]
Metabolite identification by mass spectrometry in MLM ([1]; MLM incubation, LC-MS/MS): conversion of the thiocarbamate into oxocarbamate as the major metabolic pathway and highlighted oxidative defluorination
Metabolite identification by mass spectrometry in HLM ([2]; HLM incubation, LC-MS/MS): conversion of the thiocarbamate into oxocarbamate as the major metabolic pathway and highlighted oxidative defluorination
